In US4988706A (priority 1988, dated 1991):
Counter-ions that a name gives are not always drawn. Like-named read-outs stand apart in the source and are kept apart here.

What was measured:
[1] = molecular target: muscarinic receptors (rat cerebral cortex); assay: Radio ligand binding: displacement of the muscarinic agonist 3H-Oxotremorine-M (3H-OXO-M); design: species or system Hooded Lister rats; conditions: displacement of 2nM 3H-OXO-M, rat cerebral cortex membranes, 2 mM magnesium chloride, 50 mM tris pH 7.7, 37° C., 30 min
[2] = molecular target: muscarinic receptors (rat cerebral cortex); type: binding, Hooded Lister rats; conditions: displacement of 0.27 nM 3H-QNB, rat cerebral cortex membranes, 50 mM tris pH 7.7, 37° C., 30 min

Row | SMILES | IC50 [1] | IC50 [2]
1 | FCc1noc(C23CCCN(CC2)C3)n1 (racemic) [Example E1, (±) 5-(3-Fluoromethyl-1,2,4-oxadiazol-5-yl)-1azabicyclo[3.2.l]octane oxalate salt] | 6.9 nM | 900 nM
2 | Nc1noc(C23CCCN(CC2)C3)n1 (racemic) [Example E2, (±) 5-(3-Amino-1,2,4-oxadiazol-5-yl)-1-azabicyclo-[3.2.11octane] | 11 nM | 2000 nM
3 | Nc1noc(C23CCN(CC2)C3)n1 [Example E4] | 32.5 nM | 2250 nM
4 | FCc1noc(C23CCN(CC2)C3)n1 [Example E5, 4-(3-Fluoromethyl-1,2,4-oxadiazol-5-yl)-1-azabicyclo[2.2.11heptane oxalate salt] | 140 nM | 19500 nM
